Experimental data taken from patent US6964949B2, “Pharmaceutical compositions for promoting the growth of gram-positive bacilli and increasing the acidity in the vagina and the use thereof” (Shanghai Jiao Da Onlly Co., Ltd., priority 2000, dated 2005).

Key:
Type in all cases: cell-based
Gram-positive bacilli [1] = assay: Experiment Example 4: 17.0% maltose or sucrose, specimen culture, Gram smear; conditions: 17.0% saccharide, 1.0% yeast extract, 1.6% xanthan gum, pH 6.2, candle jar, 37° C.
Method: (§1) • (1)The preparation of the compositions: Maltose and sucrose were used respectively to prepare the following composition in the methods mentioned above: • A. 17.0% maltose, 1.0% yeast extract, 1.6% xanthan gum, pH adjusted to 6.2; • B. 17.0% sucrose, 1.0% yeast extract, 1.6% xanthan gum, pH adjusted to 6.2; • (2) The preparation of the test tubes: Compositions prepared above were filled into the test tubes, with each tube containing 5 ml, sterilized, and kept until use for experiment. • (3) Specimen suspension: Vaginal secretion was taken from one of the patients suffering from typical bacterial vaginosis with a cotton swab, then the swab was washed in 2 ml sterilized Trypcase-soy Broth immediately, and thus the specimen suspension was ready. […] Then the tubes were placed in a candle jar and cultivated at 37° C. After 24 hours and 48 hours' culture, culture samples were taken respectively from each of the tubes, then the Gram smears of the samples were observed and the pH values of culture samples were tested.

Gram-negative bacilli [2] = assay: as above; conditions: 17.0% saccharide, 1.0% yeast extract, 1.6% xanthan gum, pH 6.2, candle jar, 37° C.
Method: as §1

Gram-positive cocci [3] = assay: as above; conditions: 17.0% saccharide, 1.0% yeast extract, 1.6% xanthan gum, pH 6.2, candle jar, 37° C.
Method: as §1

Gram-negative cocci [4] = assay: as above; conditions: 17.0% saccharide, 1.0% yeast extract, 1.6% xanthan gum, pH 6.2, candle jar, 37° C.
Method: as §1

Gram-negative cocci [5] = assay: Experiment Example 3: 2.5% maltose or sucrose, specimen culture, Gram smear; conditions: 2.5% saccharide, 1.0% yeast extract, 1.6% xanthan gum, pH 6.2, candle jar, 37° C.
Method: as §1, with “• (1) The” for “• (1)The”, “composition according to” for “composition in”, “A. 2.5%” for “A. 17.0%”, “B. 2.5%” for “B. 17.0%”, “sucrose, 1.0” for “sucrose, 1.0%”, “Compositions as” for “Compositions”

[6] = system: vaginal secretion specimen of a patient suffering from typical bacterial vaginosis; assay: Experiment Example 3: pH of culture samples (production of acids); conditions: 2.5% saccharide, 1.0% yeast extract, 1.6% xanthan gum, pH 6.2, candle jar, 37° C.
Method: as §1, with “• (1) The” for “• (1)The”, “composition according to” for “composition in”, “A. 2.5%” for “A. 17.0%”, “B. 2.5%” for “B. 17.0%”, “sucrose, 1.0” for “sucrose, 1.0%”, “Compositions as” for “Compositions”

Gram-positive bacilli [7] = assay: Experiment Example 2: comparison of saccharides, specimen culture, Gram smear; conditions: 10.0% saccharide, 1.0% yeast extract, 1.6% xanthan gum (dextrin 0.5%, starch none), pH 6.2, candle jar, 37° C.
Text: (§2) • (1)The preparation of the compositions: Different saccharides were used respectively to prepare the following compositions according to the methods mentioned above: glucose, fructose, galactose, mannose, maltose, sucrose, lactose, lactulose, mycose, cellobiose, melibiose, melitose, malto-oligosaccharide, isomaltooligosaccharide and fructooligosaccharide, dextrin, starch, and glycogen: • A. 5% glucose, 1.0% yeast extract, 1.6% xanthan gum, pH adjusted to 6.2; • B. 5% fructose, 1.0% yeast extract, 1.6% xanthan gum, pH adjusted to 6.2; • C. 5% galactose, 1.0% yeast extract, 1.6% xanthan gum, pH adjusted to 6.2; • D. 5% mannose, 1.0% yeast extract, 1.6% xanthan gum, pH adjusted to 6.2; • E. 10.0% maltose, 1.0% yeast extract, 1.6% xanthan gum, pH adjusted to 6.2; • F. 10.0% sucrose, 1.0% yeast extract, 1.6% xanthan gum, pH adjusted to 6.2; • G. 10.0% lactose, 1.0% yeast extract, 1.6% xanthan gum, pH adjusted to 6.2; • H. 10.0% lactulose, 1.0% yeast extract, 1.6% xanthan gum, pH adjusted to 6.2; • I. 10.0% cellobiose, 1.0% yeast extract, 1.6% xanthan gum, pH adjusted to 6.2; • J. 10.0% mycose, 1.0% yeast extract, 1.6% xanthan gum, pH adjusted to 6.2; • K. 10.0% melibiose, 1.0% yeast extract, 1.6% xanthan gum, pH adjusted to 6.2; • L. 10.0% melitose, 1.0% yeast extract, 1.6% xanthan gum, pH adjusted to 6.2; • M. 10.0% maltooligosaccharide, 1.0% yeast extract, 1.6% xanthan gum, pH adjusted to 6.2; • N. 10.0% isomaltooligosaccharide, 1.0% yeast extract, 1.6% xanthan gum, pH adjusted to 6.2; • O. 10.0% fructooligosaccharide, 1.0% yeast extract, 1.6% xanthan gum, pH adjusted to 6.2; • P. 10.0% dextrin, 1.0% yeast extract, 0.5% xanthan gum, pH adjusted to 6.2; • Q. 10.0% starch, 1.0% yeast extract, pH adjusted to 6.2; • R. 10.0% glycogen, 1.0% yeast extract, 1.6% xanthan gum, pH adjusted to 6.2. • (2)The preparation of the test tubes: The compositions prepared above were filled into test tubes, with each tube containing 5 ml, sterilized, and kept until use for experiment. • (3) Specimen suspension: Vaginal secretion was taken from one of the patients suffering from typical bacterial vagmosis with a cotton swab, then the swab was washed in 2 ml sterilized Trypcase-soy Broth immediately, and thus the specimen suspension was ready. […] Then the tubes were placed in a candle jar and cultivated at 37° C. After 24 hours and 48 hours' culture, culture samples were taken respectively from each of the tubes, then the Gram smears of the samples were observed and the pH values of culture samples were tested. […] Meanwhile the pH values in most of the composition tubes decreased to different levels. […] And maltose and sucrose exert better effect in promoting the growth of Gram-positive bacilli and the production of acids than that of the other kinds of oligosaccharides.

Gram-negative bacilli [8] = assay: as above; conditions: 10.0% saccharide, 1.0% yeast extract, 1.6% xanthan gum (dextrin 0.5%, starch none), pH 6.2, candle jar, 37° C.
Text: as §2

Gram-positive cocci [9] = assay: as above; conditions: 10.0% saccharide, 1.0% yeast extract, 1.6% xanthan gum (dextrin 0.5%, starch none), pH 6.2, candle jar, 37° C.
Text: as §2

Gram-negative cocci [10] = assay: as above; conditions: 10.0% saccharide, 1.0% yeast extract, 1.6% xanthan gum (dextrin 0.5%, starch none), pH 6.2, candle jar, 37° C.
Text: as §2

[11] = system: vaginal secretion specimen of a patient suffering from typical bacterial vaginosis; assay: Experiment Example 2: pH of culture samples (production of acids); conditions: for pH values in the tube compared with the other tubes: 10% saccharide tube, after 24 or 48 hours culture; for pH, 24 hours-culture / pH, 48 hours-culture: 10.0% saccharide, 1.0% yeast extract, 1.6% xanthan gum (dextrin 0.5%, starch none), pH 6.2, candle jar, 37° C.
Text: as §2

SMILES | Bacteria G + b (Gram-positive bacilli), 24 hours culture (Gram-positive bacilli [1]) | Bacteria G + b (Gram-positive bacilli), 48 hours culture (Gram-positive bacilli [1]) | Bacteria G − b (Gram-negative bacilli), 48 hours culture (Gram-negative bacilli [2]) | Bacteria G + c (Gram-positive cocci), 24 hours culture (Gram-positive cocci [3]) | Bacteria G + c (Gram-positive cocci), 48 hours culture (Gram-positive cocci [3]) | Bacteria G − c (Gram-negative cocci), 24 hours culture (Gram-negative cocci [4]) | Bacteria G − c (Gram-negative cocci), 48 hours culture (Gram-negative cocci [4]) | Bacteria G − c (Gram-negative cocci), 24 hours-culture (Gram-negative cocci [5]) | Bacteria G − c (Gram-negative cocci), 48 hours-culture (Gram-negative cocci [5]) | pH, 24 hours-culture [6] | pH, 48 hours-culture [6] | Bacteria G + b (Gram-positive bacilli), 48 hours-culture (Gram-positive bacilli [7]) | Bacteria G − b (Gram-negative bacilli), 24 hours-culture (Gram-negative bacilli [8]) | Bacteria G − b (Gram-negative bacilli), 48 hours-culture (Gram-negative bacilli [8]) | Bacteria G + c (Gram-positive cocci), 24 hours-culture (Gram-positive cocci [9]) | Bacteria G + c (Gram-positive cocci), 48 hours-culture (Gram-positive cocci [9]) | Bacteria G − c (Gram-negative cocci), 24 hours-culture (Gram-negative cocci [10]) | Bacteria G − c (Gram-negative cocci), 48 hours-culture (Gram-negative cocci [10]) | pH values in the tube compared with the other tubes [11] | pH, 24 hours-culture [11] | other results
OC[C@H]1O[C@@](CO)(O[C@H]2O[C@H](CO)[C@@H](O)[C@H](O)[C@H]2O)[C@@H](O)[C@@H]1O [Sucrose, sucrose] | G + b, ++ (About 10-99 bacteria per field of vision under oil-immersion lens) | G + b, ++ (About 10-99 bacteria per field of vision under oil-immersion lens) | G − b, ++ (About 10-99 bacteria per field of vision under oil-immersion lens) | G + c, + (1-9 bacteria per field of vision under oil-immersion lens) | G + c, ++ (About 10-99 bacteria per field of vision under oil-immersion lens) | G − c, − (No or less than one bacterium per field of version under oil-immersion lens) | G − c, − (No or less than one bacterium per field of version under oil-immersion lens) | G − c, − (No or less than one bacterium per field of version under oil-immersion lens) | G − c, − (No or less than one bacterium per field of version under oil-immersion lens) | 6.2 | 6.7 | G + b, +++ (About 100 bacteria or more per field vision under oil-immersion lens, even uncountable) | G − b, + (1-9 bacteria per field of vision under oil-immersion lens) | G − b, ++ (About 10-99 bacteria per field of vision under oil-immersion lens) | G + c, + (1-9 bacteria per field of vision under oil-immersion lens) | G + c, + (1-9 bacteria per field of vision under oil-immersion lens) | G − c, − (No or less than one bacterium per field of version under oil-immersion lens) | G − c, − (No or less than one bacterium per field of version under oil-immersion lens) | lower than that of the other tubes | 4.8-5.1 | pH, 48 hours-culture [11]: 4.6-4.8
OC[C@H]1O[C@H](O[C@H]2[C@H](O)[C@@H](O)[C@H](O)O[C@@H]2CO)[C@H](O)[C@@H](O)[C@@H]1O [Maltose, maltose] | G + b, +++ (About 100 bacteria or more per field vision under oil-immersion lens, even uncountable) | G + b, ++ (About 10-99 bacteria per field of vision under oil-immersion lens) | G − b, ++ (About 10-99 bacteria per field of vision under oil-immersion lens) | G + c, + (1-9 bacteria per field of vision under oil-immersion lens) | G + c, ++ (About 10-99 bacteria per field of vision under oil-immersion lens) | G − c, − (No or less than one bacterium per field of version under oil-immersion lens) | G − c, − (No or less than one bacterium per field of version under oil-immersion lens) | G − c, − (No or less than one bacterium per field of version under oil-immersion lens) | G − c, − (No or less than one bacterium per field of version under oil-immersion lens) | 7.0 | 6.4 | G + b, +++ (About 100 bacteria or more per field vision under oil-immersion lens, even uncountable) | G − b, +++ (About 100 bacteria or more per field vision under oil-immersion lens, even uncountable) | G − b, ++ (About 10-99 bacteria per field of vision under oil-immersion lens) | G + c, ++ (About 10-99 bacteria per field of vision under oil-immersion lens) | G + c, + (1-9 bacteria per field of vision under oil-immersion lens) | G − c, − (No or less than one bacterium per field of version under oil-immersion lens) | G − c, − (No or less than one bacterium per field of version under oil-immersion lens) | lower than that of the other tubes | 4.6-48 | Bacteria G − b (Gram-negative bacilli), 24 hours culture (Gram-negative bacilli [2]; 24 hours): G − b, + (1-9 bacteria per field of vision under oil-immersion lens); Bacteria G + b (Gram-positive bacilli), 24 hours-culture (Gram-positive bacilli [7]; 24 hours): G + b, ++ (About 10-99 bacteria per field of vision under oil-immersion lens); pH, 48 hours-culture [11]: 4.4-4.6
